According to US9487510B2, “Substituted heterocyclic acetamides as kappa opioid receptor (KOR) agonists” (Dr. Reddy's Laboratories Ltd., priority 2012, dated 2016):
pEC50: −log10 of the molar value. Structures can show the parent of a compound that is named as a salt.

Each molecule was assayed against human KOR receptor (Homo sapiens, UniProt P41145) (assay: IP-One HTRF assay, potency of KOR agonists, dose-response in transiently transfected COS-7 cells).
human KOR receptor, sequence (P41145 whole entry): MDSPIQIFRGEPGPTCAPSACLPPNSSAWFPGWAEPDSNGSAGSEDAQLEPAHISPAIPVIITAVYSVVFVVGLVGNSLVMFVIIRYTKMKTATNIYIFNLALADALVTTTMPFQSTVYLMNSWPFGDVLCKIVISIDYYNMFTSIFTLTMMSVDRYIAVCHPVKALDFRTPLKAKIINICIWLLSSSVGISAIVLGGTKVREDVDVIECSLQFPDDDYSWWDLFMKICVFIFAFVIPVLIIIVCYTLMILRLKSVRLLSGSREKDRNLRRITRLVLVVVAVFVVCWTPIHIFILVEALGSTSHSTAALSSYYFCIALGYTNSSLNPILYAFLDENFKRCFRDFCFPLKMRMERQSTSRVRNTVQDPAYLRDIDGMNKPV
Format: cell-based
In the case of `CN(C(=O)Cc1ccc2c(c1)NC(=O)CS2)[C@H](CN1CC[C@H](O)C1)c1cccc(F)c1` [Example 133, N-((S)-1-(3-fluorophenyl)-2-((S)-3-hydroxypyrrolidin-1-yl)ethyl)-N-methyl-2-(3-oxo-3,4-dihydro-2H-benzo[b][1,4]thiazin-6-yl)acetamide], the pEC50 was no less than 7.30.
`Cc1nc(-c2cccc([C@@H](CN3CC[C@H](O)C3)N(C)C(=O)Cc3ccc4ncc(=O)[nH]c4c3)c2)no1` [Example 194, N-((S)-2-((S)-3-hydroxypyrrolidin-1-yl)-1-(3-(5-methyl-1,2,4-oxadiazol-3-yl)phenyl)ethyl)-N-methyl-2-(3-oxo-3,4-dihydroquinoxalin-6-yl)acetamide] was tested, and the pEC50 was no less than 7.30.
With `CC(C)CN(C(=O)Cc1ccc2c(c1)NC(=O)CS2(=O)=O)[C@H](CN1CCC(O)C1)c1cccc(OC(F)(F)F)c1` (stereo in doubt) [Example 140, 2-(1,1-dioxido-3-oxo-3,4-dihydro-2H-benzo[b][1,4]thiazin-6-yl)-N-((S)-2-((S)-3-hydroxypyrrolidin-1-yl)-1-(3-(trifluoromethoxy)phenyl)ethyl)-N-isobutylacetamide] the pEC50 was no less than 7.30.
`CN(C(=O)Cc1ccc2ncc(=O)[nH]c2c1)[C@H](CN1CC[C@H](O)C1)c1cc(F)cc(C#N)c1` [Example 200, N-((S)-1-(3-cyano-5-fluorophenyl)-2-((S)-3-hydroxypyrrolidin-1-yl)ethyl)-N-methyl-2-(3-oxo-3,4-dihydroquinoxalin-6-yl)acetamide] gave a pEC50 of no less than 7.30.
`Cc1cc(C)cc([C@@H](CN2CCC(O)C2)N(C)C(=O)Cc2ccc3c(c2)NC(=O)CS3(=O)=O)c1` (stereo in doubt) [Example 147, N-((S)-1-(3,5-dimethylphenyl)-2-((S)-3-hydroxypyrrolidin-1-yl)ethyl)-2-(1,1-dioxido-3-oxo-3,4-dihydro-2H-benzo[b][1,4]thiazin-6-yl)-N-methylacetamide] showed a pEC50 of no less than 7.30.
With `CN(C(=O)Cc1ccc2c(c1)NC(=O)CO2)[C@H](CN1CC[C@H](O)C1)c1cccc(OCC(N)=O)c1` [Example 173, N-((S)-1-(3-(2-amino-2-oxoethoxy)phenyl)-2-((S)-3-hydroxypyrrolidin-1-yl)ethyl)-N-methyl-2-(3-oxo-3,4-dihydro-2H-benzo[b][1,4]oxazin-6-yl)acetamide] the pEC50 was no less than 7.30.
Molecule `CN(C(=O)Cc1ccc2c(c1)NC(=O)C2)[C@H](CN1CC[C@H](O)C1)c1cccc(C(=O)O)c1` [Example 23, 3-((S)-2-((S)-3-hydroxypyrrolidin-1-yl)-1-(N-methyl-2-(2-oxoindolin-6-yl)acetamido)ethyl) benzoic acid] has a pEC50 of no less than 7.30.
Molecule `CN(C(=O)Cc1ccc2c(c1)NC(=O)C2(F)F)[C@H](CN1CC[C@H](O)C1)c1ccccc1` [Example 12, 2-(3,3-difluoro-2-oxoindolin-6-yl)-N-((S)-2-((S)-3-hydroxypyrrolidin-1-yl)-1-phenylethyl)-N-methylacetamide] has a pEC50 of no less than 7.30.
Molecule `Cc1cccc([C@@H](CN2CC[C@H](O)C2)N(C)C(=O)Cc2ccc3c(c2)NC(=O)CS3(=O)=O)c1` [Example 145, 2-(1,1-dioxido-3-oxo-3,4-dihydro-2H-benzo [b][1,4]thiazin-6-yl)-N-((S)-2-((S)-3-hydroxypyrrolidin-1-yl)-1-(m-tolyl)ethyl)-N-methylacetamide] has a pEC50 of no less than 7.30.
In the case of `O=C(O)Cn1c(=O)oc2ccc(CC(=O)N[C@H](CN3CCCC3)c3ccccc3)cc21` [Example 83, (S)-2-(2-oxo-5-(2-oxo-2-(1-phenyl-2-(pyrrolidin-1-yl)ethylamino)ethyl)benzo[d]oxazol-3(2H)-yl)acetic acid hydrochloride], the pEC50 was no less than 7.30.
`CN(C(=O)Cc1ccc2ncc(=O)[nH]c2c1)[C@H](CN1CC[C@H](O)C1)c1cccc(C(N)=O)c1` [Example 164, 3-((S)-2-((S)-3-hydroxypyrrolidin-1-yl)-1-(N-methyl-2-(3-oxo-3,4-dihydroquinoxalin-6-yl)acetamido)ethyl)benzamide] was tested, and the pEC50 was no less than 7.30.
`CN(C(=O)Cc1ccc2c(c1)NC(=O)C2)[C@H](CN1CC[C@H](O)C1)c1cccc(-c2cncs2)c1` [Example 216, N-((S)-2-((S)-3-hydroxypyrrolidin-1-yl)-1-(3-(thiazol-5-yl)phenyl)ethyl)-N-methyl-2-(2-oxoindolin-6-yl)acetamide] was tested, and the pEC50 was no less than 7.30.
In the case of `CN(C(=O)Cc1ccc2c(c1)NC(=O)CS2)C(CN1CC[C@H](O)C1)C1CCOCC1` (stereo partly drawn) [Example 130, N-(2-((S)-3-hydroxypyrrolidin-1-yl)-1-(tetrahydro-2H-pyran-4-yl)ethyl)-N-methyl-2(3-oxo-3,4-dihydro-2H-benzo[b][1,4]thiazin-6-yl)acetamide], the pEC50 was no less than 7.30.
`CN(C(=O)Cc1ccc2oc(=O)[nH]c2c1)[C@H](CN1CC[C@H](O)C1)c1cccc(C(=O)O)c1` [Example 176, 3-((S)-2-((S)-3-hydroxypyrrolidin-1-yl)-1-(N-methyl-2-(2-oxo-2,3-dihydrobenzo[d]oxazol-5-yl)acetamido)ethyl)benzoic acid] was tested, and the pEC50 was no less than 7.30.
With `CN(C(=O)Cc1ccc2c(c1)NC(=O)CS2)[C@H](CN1CC[C@H](O)C1)c1cccc(OCC(N)=O)c1` [Example 175, N-((S)-1-(3-(2-amino-2-oxoethoxy)phenyl)-2-((S)-3-hydroxypyrrolidin-1-yl)ethyl)-N-methyl-2-(3-oxo-3,4-dihydro-2H-benzo[b][1,4]thiazin-6-yl)acetamide] the pEC50 was no less than 7.30.
Work on `CN(C(=O)Cc1ccc2ncc(=O)[nH]c2c1)[C@H](CN1CC[C@H](O)C1)c1cccc(-c2ncon2)c1` [Example 190, N-((S)-1-(3-(1,2,4-oxadiazol-3-yl)phenyl)-2-((S)-3-hydroxypyrrolidin-1-yl)ethyl)-N-methyl-2-(3-oxo-3,4-dihydroquinoxalin-6-yl)acetamide 2,2,2-trifluoroacetate] yielded a pEC50 of no less than 7.30.
For `CN(C(=O)Cc1ccc2c(c1)NC(=O)CS2)[C@H](CN1CC[C@H](O)C1)c1cccc(C#N)c1` [Example 152, N-((S)-1-(3-cyanophenyl)-2-((S)-3-hydroxypyrrolidin-1-yl)ethyl)-N-methyl-2-(3-oxo-3,4-dihydro-2H-benzo[b][1,4]thiazin-6-yl)acetamide], the pEC50 was no less than 7.30.
In the case of `O=C1COc2ccc(CC(=O)N[C@H](CN3CC[C@H](O)C3)c3ccccc3)cc2N1` [Example 2, N-[(1S)-2-[(3S)-3-hydroxypyrrolidin-1-yl]-1-phenylethyl]-2-(3-oxo-3,4-dihydro-2H-1,4-benzoxazin-6-yl)acetamide], the pEC50 was no less than 7.30.
With `Cc1noc(-c2cccc([C@@H](CN3CC[C@H](O)C3)N(C)C(=O)Cc3ccc4c(c3)NC(=O)C4)c2)n1` [Example 227, N-((S)-2-((S)-3-hydroxypyrrolidin-1-yl)-1-(3-(3-methyl-1,2,4-oxadiazol-5-yl)phenyl)ethyl)-N-methyl-2-(2-oxoindolin-6-yl)acetamide] the pEC50 was no less than 7.30.
For `CN(C(=O)Cc1ccc2oc(=O)n(CC(=O)O)c2c1)[C@H](CN1CC[C@H](O)C1)c1ccccc1` [Example 86], the pEC50 was no less than 7.30.
With `CN(C(=O)Cc1ccc2oc(=O)[nH]c2c1)C(CN1CC[C@H](O)C1)c1cccc(OCC#N)c1` (mixture of isomers) [Example 76, N-(1-(3-(cyanomethoxy)phenyl)-2-(3-hydroxypyrrolidin-1-yl)ethyl)-N-methyl-2-(2-oxo-2,3-dihydrobenzo[d]oxazol-5-yl)acetamide] the pEC50 was no less than 7.30.
